Measurements: patent publication US4617314A, “Benzofuran- and benzopyran-carboxamide derivatives” (priority 1983, dated 1986)

Legend:
[1] = tested on: rats administered with methamphetamine; assay: Methamphetamine Potentiation Action (lethality increasing effect); assay type: in vivo, rats (male Wistar); settings: 8 rats/group, methamphetamine hydrochloride 5 mg/kg i.p.
Protocol: Activation effect was construed as lethality increasing effect of a test drug on rats which were administered with methamphetamine at a non-lethal dose every week. Accordingly, it is considered that the greater is the number of rats which died at a lower dose in an earlier week, the activation activity is the higher.
Groups of 8 male Wistar rats weighing above […] were used. Test compounds are intraperitoneally administered and 15 minutes thereafter, 5 mg/kg of methamphetamine hydrochloride was intraperitoneally administered. Number of dead rats within one week was counted. In the 2nd to 4th week, experiment was likewise repeated at one week intervals by the administration of test compounds and methamphetamine hydrochloride.

[2] = tested on: stereotyped behavior of rats induced by apomorphine; assay: Anti-apomorphine Action (rats): suppression of gnawing (stereotyped) behavior; assay type: in vivo, rats (female Wistar); settings: Rattus norvegicus, po, 60 min before 1.25 mg/kg i.v. apomorphine hydrochloride; 50% suppression of gnawing behavior; probit
From the text: (§1) Dopamine antagonism was observed by the antagonism to
(2) stereotyped behavior of rats
(§2) induced by the administration of apomorphine to the animals which drug acts on dopamine. The response of (1) is considered to be due to the action of dopamine on the mesolimbic system whereas the response of (2) is regarded mainly as the action of dopamine on the extrapyramidal system. As a consequence, a drug having high selectivity to the antagonism to the response of (1) is deemed to be more useful with less extrapyramidal side effects.
Groups of 7 female Wistar rats were used. Test compounds were orally administered, 60 minutes thereafter, apomorphine hydrochloride was intravenously administered at a dosage of 1.25 mg/kg. After 5 minutes and 20 minutes, respectively, whether gnawing behavior (stereotyped behavior) appears or not during the period of 5 minutes was observed. The dose of test compounds required for 50% suppression of the appearance was evaluated as ED50 value by probit method.

[3] = tested on: hypermotility of mice induced by apomorphine; assay: Anti-apomorphine Action (mice): suppression of spontaneous motility; assay type: in vivo, mice (male dd-strain); settings: 60 min before 0.5 mg/kg apomorphine hydrochloride, 50% suppression of spontaneous motility; for ED50: Mus musculus, po; for Anti-apomorphine Action ED50, Mice, Motility: p.o.
From the text: as §1
(1) hypermotility of mice, and
as §2
Groups of 5 male dd-strain mice were used. Test compounds were orally administered and 60 minutes thereafter, 0.5 mg/kg of apomorphine hydrochloride was intracutaneously administered. Immediately thereafter, spontaneous motility of the mice was measured with the aid of Animex (manufactured by Columbus Company, U.S.A.) for 20 minutes. The procedure was repeated three times with respective groups. The dose of test compounds required for 50% suppression of spontaneous motility of control group was graphically intraporated and determined as ED50 value.

extrapyramidal system = settings: cited from earlier work
[4] = in vivo; cited from earlier work
[5] = in vivo, po; cited from earlier work

Compound: CC(C)CN1CCCC1CNC(=O)c1cc(S(N)(=O)=O)cc2c1OC(C)C2 (centres unmarked) [H, N-(1-isobutyl-2-pyrrolidinylmethyl)-2-methyl-5-sulfamoyl-2,3-dihydrobenzofuran-7-carboxamide]
- Methamphetamine Potentiation Action, Number of Dead Animal, Total Number ([1]; 1st Week, 20 mg/kg): 0
- Methamphetamine Potentiation Action, Number of Dead Animal, Total Number ([1]; 1st Week, 40 mg/kg): 2
- Methamphetamine Potentiation Action, Number of Dead Animal, Total Number ([1]; 2nd Week, 20 mg/kg): 6
- Methamphetamine Potentiation Action, Number of Dead Animal, Total Number ([1]; 2nd Week, 40 mg/kg): 4
- Methamphetamine Potentiation Action, Number of Dead Animal, Total Number ([1]; 3rd Week, 20 mg/kg): 6
- Methamphetamine Potentiation Action, Number of Dead Animal, Total Number ([1]; 3rd Week, 40 mg/kg): 7
- Methamphetamine Potentiation Action, Number of Dead Animal, Total Number ([1]; 4th Week, 20 mg/kg): 7
- Methamphetamine Potentiation Action, Number of Dead Animal, Total Number ([1]; 4th Week, 40 mg/kg): 7
- ED50 [2]: 60 mg/kg
- ED50 [3]: 19 mg/kg

Compound: CC(C)CN1CCCC1CNC(=O)c1cc(S(N)(=O)=O)cc2c1OCC2 (centres unmarked) [G, N-(1-isobutyl-2-pyrrolidinylmethyl)-5-sulfamoyl-2,3-dihydrobenzofuran-7-carboxamide]
- ED50 [2]: > 100 mg/kg
- ED50 [3]: 35 mg/kg

Compound: CCN1CCCC1CNC(=O)c1cc(S(N)(=O)=O)cc2c1OCC2.O (centres unmarked) [L, N-(1-ethyl-2-pyrrolidinylmethyl)-5-sulfamoyl-2,3-dihydrobenzofuran-7-carboxamide monohydrate]
- Methamphetamine Potentiation Action, Number of Dead Animal, Total Number ([1]; 1st Week, 25 mg/kg): 3
- Methamphetamine Potentiation Action, Number of Dead Animal, Total Number ([1]; 2nd Week, 25 mg/kg): 3
- Methamphetamine Potentiation Action, Number of Dead Animal, Total Number ([1]; 3rd Week, 25 mg/kg): 7
- Methamphetamine Potentiation Action, Number of Dead Animal, Total Number ([1]; 4th Week, 25 mg/kg): 8

Compound: CCN1CCCC1CNC(=O)c1cc(S(N)(=O)=O)ccc1OC (centres unmarked) [Sulpyride, reference compound]
- Methamphetamine Potentiation Action, Number of Dead Animal, Total Number ([1]; 1st Week, 20 mg/kg): 0
- Methamphetamine Potentiation Action, Number of Dead Animal, Total Number ([1]; 1st Week, 40 mg/kg): 0
- Methamphetamine Potentiation Action, Number of Dead Animal, Total Number ([1]; 1st Week, 80 mg/kg): 2
- Methamphetamine Potentiation Action, Number of Dead Animal, Total Number ([1]; 2nd Week, 20 mg/kg): 0
- Methamphetamine Potentiation Action, Number of Dead Animal, Total Number ([1]; 2nd Week, 40 mg/kg): 0
- Methamphetamine Potentiation Action, Number of Dead Animal, Total Number ([1]; 2nd Week, 80 mg/kg): 3
- Methamphetamine Potentiation Action, Number of Dead Animal, Total Number ([1]; 3rd Week, 20 mg/kg): 0
- Methamphetamine Potentiation Action, Number of Dead Animal, Total Number ([1]; 3rd Week, 40 mg/kg): 1
- Methamphetamine Potentiation Action, Number of Dead Animal, Total Number ([1]; 3rd Week, 80 mg/kg): 3
- Methamphetamine Potentiation Action, Number of Dead Animal, Total Number ([1]; 4th Week, 20 mg/kg): 0
- Methamphetamine Potentiation Action, Number of Dead Animal, Total Number ([1]; 4th Week, 40 mg/kg): 1
- Methamphetamine Potentiation Action, Number of Dead Animal, Total Number ([1]; 4th Week, 80 mg/kg): 3
- ED50 [2]: > 500 mg/kg
- ED50 [3]: 330 mg/kg
- cataleptogenic activity (extrapyramidal system; as opposed to butyrophenone-series (haloperidol) or phenothiazine-series (chlorpromazine) compounds): weak
- side effects on the extrapyramidal system (extrapyramidal system; in vivo): less side effects
- crossing of blood-brain barrier [4]: difficult to cross blood-brain barrier
- uptake rate in living organisms [5]: low uptake rate

Compound: NS(=O)(=O)c1cc2c(c(C(=O)NCC3CCCN3Cc3ccccc3)c1)OCC2 (centres unmarked) [F, N-(1-benzyl-2-pyrrolidinylmethyl)-5-sulfamoyl-2,3-dihydrobenzofuran-7-carboxamide]
- Methamphetamine Potentiation Action, Number of Dead Animal, Total Number ([1]; 1st Week, 10 mg/kg): 0
- Methamphetamine Potentiation Action, Number of Dead Animal, Total Number ([1]; 1st Week, 25 mg/kg): 0
- Methamphetamine Potentiation Action, Number of Dead Animal, Total Number ([1]; 1st Week, 50 mg/kg): 0
- Methamphetamine Potentiation Action, Number of Dead Animal, Total Number ([1]; 2nd Week, 10 mg/kg): 0
- Methamphetamine Potentiation Action, Number of Dead Animal, Total Number ([1]; 2nd Week, 25 mg/kg): 0
- Methamphetamine Potentiation Action, Number of Dead Animal, Total Number ([1]; 2nd Week, 50 mg/kg): 2
- Methamphetamine Potentiation Action, Number of Dead Animal, Total Number ([1]; 3rd Week, 10 mg/kg): 0
- Methamphetamine Potentiation Action, Number of Dead Animal, Total Number ([1]; 3rd Week, 25 mg/kg): 1
- Methamphetamine Potentiation Action, Number of Dead Animal, Total Number ([1]; 3rd Week, 50 mg/kg): 3
- Methamphetamine Potentiation Action, Number of Dead Animal, Total Number ([1]; 4th Week, 10 mg/kg): 1
- Methamphetamine Potentiation Action, Number of Dead Animal, Total Number ([1]; 4th Week, 25 mg/kg): 2
- Methamphetamine Potentiation Action, Number of Dead Animal, Total Number ([1]; 4th Week, 50 mg/kg): 6
- ED50 [2]: > 100 mg/kg
- ED50 [3]: 17 mg/kg

Compound: CCN1CCCC1CNC(=O)c1cc(S(N)(=O)=O)cc2c1OC(C)C2 (centres unmarked) [A, N-(1-ethyl-2-pyrrolidinylmethyl)-2-methyl-5-sulfamoyl-2,3-dihydrobenzofuran-7-carboxamide]
- Methamphetamine Potentiation Action, Number of Dead Animal, Total Number ([1]; 1st Week, 5 mg/kg): 1
- Methamphetamine Potentiation Action, Number of Dead Animal, Total Number ([1]; 1st Week, 10 mg/kg): 0
- Methamphetamine Potentiation Action, Number of Dead Animal, Total Number ([1]; 1st Week, 20 mg/kg): 2
- Methamphetamine Potentiation Action, Number of Dead Animal, Total Number ([1]; 2nd Week, 5 mg/kg): 1
- Methamphetamine Potentiation Action, Number of Dead Animal, Total Number ([1]; 2nd Week, 10 mg/kg): 3
- Methamphetamine Potentiation Action, Number of Dead Animal, Total Number ([1]; 2nd Week, 20 mg/kg): 5
- Methamphetamine Potentiation Action, Number of Dead Animal, Total Number ([1]; 3rd Week, 5 mg/kg): 1
- Methamphetamine Potentiation Action, Number of Dead Animal, Total Number ([1]; 3rd Week, 10 mg/kg): 4
- Methamphetamine Potentiation Action, Number of Dead Animal, Total Number ([1]; 3rd Week, 20 mg/kg): 5
- Methamphetamine Potentiation Action, Number of Dead Animal, Total Number ([1]; 4th Week, 5 mg/kg): 1
- Methamphetamine Potentiation Action, Number of Dead Animal, Total Number ([1]; 4th Week, 10 mg/kg): 4
- Methamphetamine Potentiation Action, Number of Dead Animal, Total Number ([1]; 4th Week, 20 mg/kg): 7
- ED50 [2]: > 100 mg/kg
- ED50 [3]: 80 mg/kg

Compound: CCCCN1CCCC1CNC(=O)c1cc(S(N)(=O)=O)cc2c1OC(C)C2 (centres unmarked) [Compound I, N-(1-butyl-2-pyrrolidinylmethyl)-2-methyl-5-sulfamoyl-2,3-dihydrobenzofuran-7-carboxamide]
- ED50 [2]: > 100 mg/kg
- ED50 [3]: 30 mg/kg

Compound: CC1Cc2cc(S(N)(=O)=O)cc(C(=O)NC3CCN(Cc4ccccc4)C3)c2O1 (centres unmarked) [Compound E, N-(1-benzyl-3-pyrrolidinyl)-2-methyl-5-sulfamoyl-2,3-dihydrobenzofuran-7-carboxamide]
- ED50 [2]: > 100 mg/kg
- ED50 [3]: 100 mg/kg

Compound: CCN1CCCC1CNC(=O)c1cc(S(=O)(=O)NC)cc2c1OC(C)C2.Cl (centres unmarked) [J, N-(1-ethyl-2-pyrrolidinylmethyl)-2-methyl-5-methylsulfamoyl-2,3-dihydrobenzofuran-7-carboxamide hydrochloride]
- ED50 [2]: > 100 mg/kg
- ED50 [3]: 10 mg/kg

Compound: CCN1CCCC1CNC(=O)c1cc(SC)cc2c1OC(C)C2.Cl (centres unmarked) [K, N-(1-ethyl-2-pyrrolidinylmethyl)-2-methyl-5-methylthio-2,3-dihydrobenzofuran-7-carboxamide hydrochloride]
- ED50 [2]: 0.2 mg/kg
- ED50 [3]: 0.65 mg/kg

Compound: CCN1CCCC1CNC(=O)c1cc(S(N)(=O)=O)cc2c1OC(C)C2 (single isomer, unassigned) [B, N-(1-ethyl-2-pyrrolidinylmethyl)-2-methyl-5-sulfamoyl-2,3-dihydrobenzofuran-7-carboxamide]
- Anti-apomorphine Action ED50, Mice, Motility [3]: 23 mg/kg

Compound: CC1Cc2cc(S(N)(=O)=O)cc(C(=O)NCC3CCCN3Cc3ccccc3)c2O1 (centres unmarked) [D, N-(1-benzyl-2-pyrrolidinylmethyl)-2-methyl-5-sulfamoyl-2,3-dihydrobenzofuran-7-carboxamide]
- ED50 [2]: 21 mg/kg
- ED50 [3]: 6 mg/kg

Compound: CCN1CCCC1CNC(=O)c1cc(S(N)(=O)=O)cc2c1OC(C)C2 (single isomer, unassigned) [C, N-(1-ethyl-2-pyrrolidinylmethyl)-2-methyl-5-sulfamoyl-2,3-dihydrobenzofuran-7-carboxamide]
- Anti-apomorphine Action ED50, Mice, Motility [3]: 85 mg/kg
